A short description of series [1]: Measurement of Log P values by HPLC on reversed phase columns (EEC directive 79/831 Annex V.A8). The series is classed as physicochemical. To be noted: reversed phase HPLC column, method [a]: LC-UV, acidic range, 0.1% formic acid in water and acetonitrile as eluent. The essentials: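 Log P derived from retention on reversed-phase columns (EEC directive 79/831 Annex V.A8), LC-UV, acetonitrile gradient 10% to 95% against water containing 0.1% formic acid, 0.001 M ammonium acetate, or 0.1% phosphoric acid; several values per method separated by "+".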

The test system of another series is Alternaria brassicae. As to the kind of experiment: In vivo preventive test on Alternaria brassicae (leaf spot on radish or cabbage). To be noted: 500 ppm of active ingredient, preventive spray on radish or cabbage, evaluated 3 to 4 days after inoculation, read-out: efficacy. The essentials:
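Protective spray on young radish or cabbage: actives in water diluted from DMSO/acetone/Tween 80, with solvent-only controls. Leaves were challenged after 24 h with a spore suspension, and plants were held at 100% RH, 20 °C for 3 to 4 days.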

In series [2] the test system is Botrytis cinerea. As to the kind of experiment: In vivo preventive test on Botrytis cinerea (grey mould). To be noted: 500 ppm of active ingredient, preventive spray on gherkin or cabbage, evaluated 4 to 5 days after inoculation, read-out: efficacy. The essentials:
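Preventive spray on cabbage or gherkin seedlings, with compound formulated in DMSO/acetone/Tween 80 and water-diluted, preceded spore inoculation by 24 hours. Cabbage was held 4 to 5 days at 20° C., 100% relative humidity; gherkin 4 to 5 days at 17° C., 90% relative humidity.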

For series [3], the system named is Pyrenophora teres. As to the kind of experiment: In vivo preventive test on Pyrenophora teres (net blotch on barley). To be noted: 240 h, 500 ppm of active ingredient, preventive spray on barley, evaluated 10 days after inoculation, read-out: efficacy. Summed up:
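Net blotch spores were sprayed onto barley leaves one day after foliar treatment with water-diluted DMSO/acetone/Tween 80 formulations (solvent-only controls). Plants were kept at 20° C: first 48 hours at 100% relative humidity, then 8 days at 70-80%.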

In the next series the test system is Sphaerotheca fuliginea. As to the kind of experiment: In vivo preventive test on Sphaerotheca fuliginea (powdery mildew on cucurbits). To be noted: Podosphaera fuliginea, 192 h; 500 ppm of active ingredient; preventive spray on gherkin; evaluated 8 days after inoculation; read-out: efficacy. The essentials:
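This is a preventive spray test on gherkin seedlings, with compound formulated in DMSO/acetone/Tween 80 in water and solvent-only controls. Spore inoculation followed one day after treatment. Incubation lasted 8 days at 20 °C, 70–80% RH.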

The subject of series [4] is Colletotrichum lindemuthianum. As to the kind of experiment: In vivo preventive test on Colletotrichum lindemuthianum (leaf spot on bean). To be noted: 168 h, 500 ppm of active ingredient, preventive spray on bean, evaluated 7 days after inoculation, read-out: efficacy. Summed up: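 Young bean plants sprayed with compound in DMSO/acetone/Tween 80 diluted in water; solvent-only controls. Inoculated 24 h later with C. lindemuthianum spore suspension, then kept 24 h at 20 °C/100% RH and 6 days at 20 °C/90% RH.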

A further series has as its system Alternaria alternata. As to the kind of experiment: Alternaria alternata in vitro cell test. The series is classed as cell-based. To be noted: 120 h, 20 ppm of active ingredient, liquid culture, 5 days incubation, spectrometric measurement of mycelium growth, read-out: efficacy (inhibition of fungal growth). Summed up:
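Spectrometric readout of mycelial growth after 5-day incubation gauged compound effects on spore germination and growth of A. alternata in liquid medium. Compounds were delivered in DMSO at ≤1% final. Absorbance was compared with untreated controls to give inhibition.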

A further series concerns Septoria tritici. As to the kind of experiment: B-9. Septoria tritici in vitro cell test. The series is classed as cell-based. To be noted: Zymoseptoria tritici, 168 h; 20 ppm of active ingredient; 7 days incubation; liquid culture, absorbance; read-out: efficacy (inhibition of fungal growth). Summed up: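 Compounds from DMSO stocks (final DMSO ≤1%) were added to liquid medium containing S. tritici spores to test inhibition of germination and mycelial growth. After 7 days, mycelium growth was read spectrometrically and inhibition derived from absorbance versus fungicide-free control wells.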

Series [5] relates to Pyrenophora teres. As to the kind of experiment: B-10. Pyrenophora teres in vitro cell test. To be noted: 144 h, 20 ppm of active ingredient, 6 days incubation, liquid culture, absorbance, read-out: efficacy (inhibition of fungal growth). The series is classed as cell-based. The essentials:
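Liquid-culture assay on a P. teres spore suspension with compounds added to the medium from DMSO solutions, final DMSO ≤1%. Mycelium growth read spectrometrically after 6 days. Inhibition calculated from absorbance against untreated control wells.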

Series [6] has as its system Botrytis cinerea. As to the kind of experiment: B-11. Botrytis cinerea in vitro cell test. The series is classed as cell-based. To be noted: 144 h, 20 ppm of active ingredient, 6 days incubation, liquid culture, absorbance, read-out: efficacy (inhibition of fungal growth). Summed up: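 B. cinerea spores were grown in liquid culture with compound (DMSO ≤1% final). Mycelium growth was measured spectrometrically after 6 days, with inhibition taken as absorbance relative to untreated control wells.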

For series [7], the system named is Colletotrichum lindemuthianum. As to the kind of experiment: B-8. Colletotrichum lindemuthianum in vitro cell test. The series is classed as cell-based. To be noted: 144 h, 20 ppm of active ingredient, 6 days incubation, liquid culture, absorbance, read-out: efficacy (inhibition of fungal growth). Summed up:
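Liquid-culture germination/growth test: compounds in ≤1% final DMSO were added to spore-containing medium. Fungal growth was quantified spectrophotometrically after 6 days of incubation and expressed as inhibition versus untreated controls.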

Molecules are shown by their SMILES.

In the case of `O=C(NC[C@H](F)c1ccc(Cl)cc1Cl)c1c(Oc2cccc(C(F)(F)F)c2)nnc2ccccc12` (racemic) [I-219], the chromatographic logP – broadly, lipophilicity estimated from chromatographic retention – in [1] is 4.55. The pest or weed control at 500 ppm (in the series with Alternaria brassicae; in the series with Botrytis cinerea [2]; in the series with Pyrenophora teres [3]; with Sphaerotheca fuliginea; in [4]) was 90 to 100% each time. Further, the inhibition (usually the change of the read-out against control, counted positive when it falls) at 20 ppm was 80 to 89% in the series on Alternaria alternata, 80 to 89% with Septoria tritici, 70 to 79% with Pyrenophora teres [5] and 90 to 100% in the series on Botrytis cinerea [6].
On to `Cc1cc(Cl)ccc1C(F)(F)CNC(=O)c1c(Oc2cccc(C(F)(F)F)c2)nnc2c1COCC2` [I-125], for which the chromatographic logP in [1] was 3.85. Also, the pest or weed control at 500 ppm was 90 to 100% in the series on Alternaria brassicae; 90 to 100% with Botrytis cinerea [2]; 70 to 79% in the series with Pyrenophora teres [3]; 90 to 100% in the series with Sphaerotheca fuliginea; 80 to 89% in [4]. The inhibition at 20 ppm with Alternaria alternata, in the series with Septoria tritici, with Pyrenophora teres [5] and in the series on Botrytis cinerea [6] was 90 to 100% in each case.
With `O=C(NCC(F)c1ccc(Cl)cc1Cl)c1c(Oc2cccc(C3CC3)c2F)nnc2c1CCCC2` (stereo not drawn) [I-184], in series [1], the chromatographic logP stood at 4.17. Also, the pest or weed control at 500 ppm (in the series on Alternaria brassicae; in the series on Pyrenophora teres [3]; in the series on Sphaerotheca fuliginea; in series [4]) was 90 to 100% throughout. Further, the inhibition at 20 ppm (with Alternaria alternata; in series [7]; in the series with Septoria tritici; with Pyrenophora teres [5]; in the series on Botrytis cinerea [6]) was 90 to 100% each time.

Source of the values: patent US20230192617A1, “AZABICYCLIC(THIO)AMIDES AS FUNGICIDAL COMPOUNDS” (Bayer CropScience Aktiengesellschaft, priority 2020, published 2023).
